Measured values from PubChem BioAssay (NCI).
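The compound was tested at five concentrations on cells cultured in 96-well plates, with a 48-hour exposure period. GI50: concentration for 50% inhibition of growth. TGI denotes the concentration required for complete inhibition of growth.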

What was measured:
Experiment in all cases: NCI-60 cell line screen, 48 h
HCT-116 colon = tested on: HCT-116 colon
OVCAR-8 ovarian = tested on: OVCAR-8 ovarian
COLO 205 colon = tested on: COLO 205 colon
SK-MEL-5 melanoma = tested on: SK-MEL-5 melanoma
DU-145 prostate = tested on: DU-145 prostate
OVCAR-5 ovarian = tested on: OVCAR-5 ovarian
A498 renal = tested on: A498 renal
MDA-MB-435 = tested on: MDA-MB-435
BT-549 breast = tested on: BT-549 breast
SK-OV-3 ovarian = tested on: SK-OV-3 ovarian
T-47D breast = tested on: T-47D breast
EKVX NSCLC = tested on: EKVX NSCLC
SNB-75 CNS = tested on: SNB-75 CNS
CCRF-CEM leukemia = tested on: CCRF-CEM leukemia
HCT-15 colon = tested on: HCT-15 colon
IGROV1 ovarian = tested on: IGROV1 ovarian
HL-60(TB) leukemia = tested on: HL-60(TB) leukemia
786-0 renal = tested on: 786-0 renal
MOLT-4 leukemia = tested on: MOLT-4 leukemia
OVCAR-4 ovarian = tested on: OVCAR-4 ovarian
SF-268 CNS = tested on: SF-268 CNS
OVCAR-3 ovarian = tested on: OVCAR-3 ovarian
K-562 leukemia = tested on: K-562 leukemia
HOP-62 NSCLC = tested on: HOP-62 NSCLC
SW-620 colon = tested on: SW-620 colon
SN12C renal = tested on: SN12C renal
ACHN renal = tested on: ACHN renal
NCI/ADR-RES ovarian = tested on: NCI/ADR-RES ovarian
UACC-62 melanoma = tested on: UACC-62 melanoma
M14 melanoma = tested on: M14 melanoma
UACC-257 melanoma = tested on: UACC-257 melanoma
PC-3 prostate = tested on: PC-3 prostate
KM12 colon = tested on: KM12 colon
SK-MEL-28 melanoma = tested on: SK-MEL-28 melanoma
SK-MEL-2 melanoma = tested on: SK-MEL-2 melanoma
SF-295 CNS = tested on: SF-295 CNS
TK-10 renal = tested on: TK-10 renal
NCI-H460 lung = tested on: NCI-H460 lung
RPMI-8226 leukemia = tested on: RPMI-8226 leukemia
SF-539 CNS = tested on: SF-539 CNS
HS 578T breast = tested on: HS 578T breast
UO-31 renal = tested on: UO-31 renal
HCC-2998 colon = tested on: HCC-2998 colon
HT29 colon = tested on: HT29 colon
MDA-MB-231 breast = tested on: MDA-MB-231 breast
NCI-H522 lung = tested on: NCI-H522 lung
CAKI-1 renal = tested on: CAKI-1 renal
MALME-3M melanoma = tested on: MALME-3M melanoma
U251 CNS = tested on: U251 CNS
LOX IMVI melanoma = tested on: LOX IMVI melanoma
A549 NSCLC = tested on: A549 NSCLC
SNB-19 CNS = tested on: SNB-19 CNS
RXF 393 renal = tested on: RXF 393 renal
HOP-92 NSCLC = tested on: HOP-92 NSCLC

With Cc1cc2ncc(-c3cc4ccccc4c(N4CCN(C)CC4)n3)nc2cc1C the GI50 (HCT-116 colon) was 1.67 µM, the TGI (HCT-116 colon) was 3.09 µM and the GI50 (OVCAR-8 ovarian) was 2.83 µM. The TGI (OVCAR-8 ovarian) was 8.57 µM, the GI50 (COLO 205 colon) was 1.87 µM and the TGI (COLO 205 colon) was 3.52 µM. For the same molecule, the GI50 (SK-MEL-5 melanoma) was 12.8 µM, the TGI (SK-MEL-5 melanoma) was 29.4 µM and the GI50 (DU-145 prostate) was 6.53 µM. The TGI (DU-145 prostate) was > 100 µM, the GI50 (OVCAR-5 ovarian) was 8.87 µM and the TGI (OVCAR-5 ovarian) was 49.2 µM. For the same molecule, the GI50 (A498 renal) was 16.1 µM, the TGI (A498 renal) was 31.6 µM and the GI50 (MDA-MB-435) was 1.79 µM. It also gave a TGI (MDA-MB-435) of 3.36 µM, a GI50 (BT-549 breast) of 14 µM and a TGI (BT-549 breast) of 29.2 µM. For the same molecule, the GI50 (SK-OV-3 ovarian) was 36.6 µM, the TGI (SK-OV-3 ovarian) was > 100 µM and the GI50 (T-47D breast) was 3.59 µM. For the same molecule, the TGI (T-47D breast) was 15.4 µM, the GI50 (EKVX NSCLC) was 33.7 µM and the TGI (EKVX NSCLC) was > 100 µM. For the same molecule, the GI50 (SNB-75 CNS) was 11 µM, the TGI (SNB-75 CNS) was 24 µM and the GI50 (CCRF-CEM leukemia) was 2.22 µM. For the same molecule, the TGI (CCRF-CEM leukemia) was 5.93 µM, the GI50 (HCT-15 colon) was 1.82 µM and the TGI (HCT-15 colon) was 3.6 µM. For the same molecule, the GI50 (IGROV1 ovarian) was 4.81 µM, the TGI (IGROV1 ovarian) was 61.2 µM and the GI50 (HL-60(TB) leukemia) was 1.55 µM. It also gave a TGI (HL-60(TB) leukemia) of 3.56 µM, a GI50 (786-0 renal) of 1.68 µM and a TGI (786-0 renal) of 3.57 µM. It also gave a GI50 (MOLT-4 leukemia) of 2.32 µM, a TGI (MOLT-4 leukemia) of 5.27 µM and a GI50 (OVCAR-4 ovarian) of 5.62 µM. The TGI (OVCAR-4 ovarian) was > 100 µM, the GI50 (SF-268 CNS) was 13.2 µM and the TGI (SF-268 CNS) was 55 µM. The GI50 (OVCAR-3 ovarian) was 10.3 µM, the TGI (OVCAR-3 ovarian) was > 100 µM and the GI50 (K-562 leukemia) was 1.82 µM. It also gave a TGI (K-562 leukemia) of 3.57 µM, a GI50 (HOP-62 NSCLC) of 21.2 µM and a TGI (HOP-62 NSCLC) of 79.5 µM. The GI50 (SW-620 colon) was 1.85 µM, the TGI (SW-620 colon) was 3.41 µM and the GI50 (SN12C renal) was 6.07 µM. The TGI (SN12C renal) was 65.8 µM, the GI50 (ACHN renal) was 2.14 µM and the TGI (ACHN renal) was 4.45 µM. For the same molecule, the GI50 (NCI/ADR-RES ovarian) was 5.76 µM, the TGI (NCI/ADR-RES ovarian) was > 100 µM and the GI50 (UACC-62 melanoma) was 1.89 µM. It also gave a TGI (UACC-62 melanoma) of 3.89 µM, a GI50 (M14 melanoma) of 1.75 µM and a TGI (M14 melanoma) of 3.21 µM. It also gave a GI50 (UACC-257 melanoma) of 12.8 µM, a TGI (UACC-257 melanoma) of 26.4 µM and a GI50 (PC-3 prostate) of 5.37 µM. The TGI (PC-3 prostate) was > 100 µM, the GI50 (KM12 colon) was 2.34 µM and the TGI (KM12 colon) was 5.47 µM. For the same molecule, the GI50 (SK-MEL-28 melanoma) was 1.74 µM, the TGI (SK-MEL-28 melanoma) was 3.19 µM and the GI50 (SK-MEL-2 melanoma) was 16 µM. For the same molecule, the TGI (SK-MEL-2 melanoma) was 31.2 µM, the GI50 (SF-295 CNS) was 14.2 µM and the TGI (SF-295 CNS) was 31.6 µM. For the same molecule, the GI50 (TK-10 renal) was 20 µM, the TGI (TK-10 renal) was 44.1 µM and the GI50 (NCI-H460 lung) was 1.87 µM. The TGI (NCI-H460 lung) was 3.45 µM, the GI50 (RPMI-8226 leukemia) was 2.19 µM and the TGI (RPMI-8226 leukemia) was 5.33 µM. The GI50 (SF-539 CNS) was 1.87 µM, the TGI (SF-539 CNS) was 3.98 µM and the GI50 (HS 578T breast) was 12.7 µM. It also gave a TGI (HS 578T breast) of 39.2 µM, a GI50 (UO-31 renal) of 4.35 µM and a TGI (UO-31 renal) of 17.2 µM. For the same molecule, the GI50 (HCC-2998 colon) was 1.69 µM, the TGI (HCC-2998 colon) was 3.2 µM and the GI50 (HT29 colon) was 1.63 µM. For the same molecule, the TGI (HT29 colon) was 3.29 µM, the GI50 (MDA-MB-231 breast) was 2.98 µM and the TGI (MDA-MB-231 breast) was 10.3 µM. For the same molecule, the GI50 (NCI-H522 lung) was 11.6 µM, the TGI (NCI-H522 lung) was 28.9 µM and the GI50 (CAKI-1 renal) was 1.62 µM. It also gave a TGI (CAKI-1 renal) of 3.12 µM, a GI50 (MALME-3M melanoma) of 1.75 µM and a TGI (MALME-3M melanoma) of 3.42 µM. The GI50 (U251 CNS) was 2.11 µM, the TGI (U251 CNS) was 4.91 µM and the GI50 (LOX IMVI melanoma) was 1.81 µM. The TGI (LOX IMVI melanoma) was 3.34 µM, the GI50 (A549 NSCLC) was 81.6 µM and the TGI (A549 NSCLC) was > 100 µM. It also gave a GI50 (SNB-19 CNS) of 20.2 µM, a TGI (SNB-19 CNS) of 89.8 µM and a GI50 (RXF 393 renal) of 2.01 µM. For the same molecule, the TGI (RXF 393 renal) was 4.8 µM, the GI50 (HOP-92 NSCLC) was 2.42 µM and the TGI (HOP-92 NSCLC) was 15.9 µM.
